# What was measured:
# [1] = system: Cripto-induced Smad2 phosphorylation; test: Smad2 phosphorylation assay (Western blot) in cripto-/- embryoid bodies; type: cell-based, mouse
# Protocol: Two day-old cripto^−/− Embryoid Bodies (EBs) were serum starved for 3 hrs in DMEM (GIBCO) without LIF and in low serum (0.5% FBS). Following starvation, EBs were incubated for 20 min at 37° C. with recombinant Cripto protein (0.5 µg/ml) either alone or in the presence of the indicated amount of peptides. Finally, EBs were dissolved in Laemmli lysis buffer and analyzed by Western blot using the Trans-Blot Semi-dry System (BIO-RAD), following manufacturer's instruction. Anti-Smad2 and anti-phospho-Smad2 (Ser465/467) Antibodies (Cell Signalling Technology) were used, following the manufacturer's instructions.
# wild-type EBs = test: QRT-PCR of cardiac and neuronal markers in EBs; type: cell-based, mouse; settings: 25 μM peptide, 13 day-old EBs
# Protocol: Total RNAs from 13 day-old EBs was extracted with TRIzol kit (Life Technologies Inc.) according to manufacturer's instructions. One microgram of total RNA was used for cDNA synthesis with SuperScript II reverse transcriptase (Life Technologies Inc.) and random hexamers. Quantitative Real time PCR was performed using SYBR Green PCR master mix (EuroClone), according to manufacturer's instructions. The primers used are described in Table S2.
# Mouse ESC = test: In vitro dopamine and DOPAC levels by HPLC after KCl; type: cell-based; settings: 14 days in vitro
# Protocol: Dopamine release and turnover was determined in vitro using reverse phase high performance liquid chromatography (HPLC). Mouse ESC were differentiated in a 12 well plate according to the methodology depicted in FIG. 7(a), in the presence of either the Control peptide of Cripto BP. After 14 days in vitro, media was replaced with 200 ul of N2 media supplemented with 56 mM KCl for 30 min. The media was then collected and stabilized with 20 ul of buffer containing 0.4 M perchloric acid containing 7.9 mM sodium metabisulphate and 1.34 mM disodium EDTA. On the day of analysis the samples were centrifuged and the supernatant transferred to HPLC vials and placed in an autosampler for injection onto the HPLC. The HPLC consisted of a LC-20AT pump (Shimadzu), SIL-20A Autosampler (Shimadzu) and C18 reverse phase column (Bio-Rad, Hercules, USA). Detection was via a 3 mm VT-03 flow cell with glassy carbon working electrode (Antec Leyden) and Decade II Electrochemical Detector (Antec Leyden). The mobile phase consisted of 17% v/v methanol in purified deionized water containing 70 mM KH2PO4, 0.5 mM EDTA and 8.0 mM sulfonic acid, pH 3.0 and was run at a flow rate of 0.5 ml/min. DA turnover was expressed as the concentration of DOPAC to DA [DOPAC/DA]. Analysis was performed on triplicate wells on three independent differentiation experiments.
# Parkinsonian rats = test: Tumor formation after ESC transplantation into striatum of 6-OHDA lesioned rats; type: in vivo, rat
# Source text: Thirty-seven adult male Sprague Dawley rats (250-350 g; from ARC, Australia) were housed and treated according to the guidelines of the Australian and Howard Florey Institute animal ethics committee (07-030). Animals received unilateral stereotaxic injections of 6-OHDA into the substantia nigra pars compacta (SNpc) to create a complete lesion of the midbrain DA neurons, as previously described^29. Lesioned animals were selected for transplantation based on their response to amphetamine induced rotational behaviour as previously described^29. Animals making greater than 6 rotations/min (lesion greater than 80%) were selected for grafting.
# Two days prior to grafting animals began cyclosporine-A immune suppression (10 mg/kg). Fourteen days post-lesioning selected animals (determined by behavioural rotations) were again anesthetized and stereotaxically injected with 1 μl of cell suspension at each of the 4 sites as previously described^29. Stereotaxic coordinates of 1st & 2nd Injection (from bregma): anterior 0.2 mm, lateral 3.0 mm, ventral 4.5 and 5.0 mm; 3rd & 4th Injection, anterior 1.0 mm, lateral 2.5 mm, ventral 4.5 and 5.0 mm; incisor bar 0 mm^57). ESCs were differentiated as outlined in FIG. 7a. In brief, ESC colonies were dissected away from the stromal feeder layer and dissociated using collagenase/dispase with agitation (700 μg/ml, Roche, for 20 min, 80 rpm). Cells were subsequently resuspended at a density of 3,000 cells/μl ready for grafting. Five rats received Sham injections (4 μl N2 media, 1 μl/site), 16 rats received a total of 12,000 ESCs (4×1 μl grafts) pre-treated with the Control peptide (of which 9 of these animals also received infusion of the Control peptide) and a further 16 rats received grafts pretreated with the Cripto blocking peptide (9 animals receiving infusion of the Cripto BP).
# The peptide infusion was performed by implantation of a cannula into the striatum (Alzet brain infusion kit) connected to a subcutaneously placed osmotic minipump (Alzet) prefilled with either CP or Cripto BP. Implantation was performed at the same time as the cell grafting. Cannula coordinates: anterior 0.5 mm, lateral 1.5 mm, ventral 5.0 mm; incisor bar 0 mm^57. The osmotic pump was capable of continuously delivering the peptide over a 3 weeks period (75 μM, 0.25 μl/hr) upon which time the animals were briefly anaesthetized with isoflurane and the pump removed through a small incision over the scapular region.
# Eight weeks post grafting, rats were killed by an overdose of sodium pentobarbital (100 mg kg^−1 i.p.) and intracardially perfused as previously described^29. Brains were removed, post fixed for 1 hour, and then left overnight at 4° C. in 20% sucrose in PBS. The following day, 20 μm-thick coronal sections were cut serially through the striatum (12 series) and 50 μm through the SNpc and mounted directly onto chrome alum [K2Cr(SO4)2.12H2O] gelatinized slides.
# One series of slides containing grafted striata was counterstained using 1% Neutral red to visualise the graft/tumor size and the gross morphology of the striatum.
# Labeling was visualized by light or fluorescent illumination using an inverted microscope (DMIRB, Leica Microsystems, Wetzelar, Del., http://www.leica-microsystems.com) or upright microscope (Leica DMLB2). Images were acquired on a DC 350 FX camera (Leica). Area of grafts and tumors was calculated using Stereo Investigator software (MicroBrightField, Vt., USA).
# [2] = 56 mM KCl 30 min, compared to Control peptide
compound,measurement,setting,value
C[S+]([O-])CCC(N)C(=O)N[C@@H](CSCc1ccccc1)C(=O)N[C@@H](CSCc1ccccc1)C(=O)N[C@@H](CCCCNC(=O)[C@H](CSCc1ccccc1)NC(=O)[C@H](CSCc1ccccc1)NC(=O)[C@@H](N)CC[S+](C)[O-])C(=O)N[C@@H](CCCCNC(=O)[C@H](CCCCNC(=O)[C@H](CSCc1ccccc1)NC(=O)[C@H](CSCc1ccccc1)NC(=O)[C@@H](N)CC[S+](C)[O-])NC(=O)[C@H](CSCc1ccccc1)NC(=O)[C@H](CSCc1ccccc1)NC(=O)[C@@H](N)CC[S+](C)[O-])C(=O)NCC(=O)O (some centres unmarked) [Cripto BP],effect on Cripto-induced Smad2 phosphorylation,"[1]; 2 day-old cripto−/− EBs, Cripto 0.5 μg/ml, peptide 2.5 μM and 25 μM",inhibited
same,effect on Cripto-induced Smad2 phosphorylation,[1]; peptide 25 μM (125× molar excess),completely blocked
same,expression of cardiac specific marker MLc2v,wild-type EBs,reduced
same,"expression of midbrain dopaminergic neuron markers (Pitx3, Wnt5a, Shh, TH, DAT)",wild-type EBs,showed expression of markers characteristic of developing midbrain dopaminergic neurons
same,expression of pan neuronal marker NFM,wild-type EBs,induced
same,KCl-evoked release of DOPAC,Mouse ESC; [2],significantly increases
same,KCl-evoked release of dopamine,Mouse ESC; [2],significantly increases
same,dopamine turnover (ratio of DOPAC to DA),Mouse ESC,able to utilize DA
same,tumor volume,Parkinsonian rats; ESCs pre-treated with peptide + peptide infusion,0.79 um^3×10^10
same,tumor formation (rats with tumors),"Parkinsonian rats; ESCs pre-treated with peptide, no infusion, 8 weeks",42%
same,tumor volume,"Parkinsonian rats; ESCs pre-treated with peptide, no infusion, Mean±SEM",1.09 um^3×10^10
same,further reduction of tumor incidence by continual infusion into the striatum,"Parkinsonian rats; pre-treated ESCs + peptide infusion (75 μM, 0.25 μl/hr, 3 weeks)",9%
same,animals with grafts without proliferating or undifferentiated cells,Parkinsonian rats; range over pre-treatment without and with infusion,58-67%
same,reduction of tumor formation compared to control peptide,"Parkinsonian rats; rat, in vivo",more than 50%

# Reference: patent publication US20110028401A1, “CRIPTO BLOCKING MOLECULES AND THERAPEUTIC USES THEREOF” (CONSIGLIO NAZIONALE DELLE RICERCHE, priority 2009, published 2011)
